Experimental data reported in patent publication US20260165350A1, “FLAVONOID COMPOSITIONS AND USES THEREOF” (FIRMENICH SA, priority 2022, published 2026).

Experiments:
Type in all cases: physicochemical
[1] = Solvent comparison: visual observation of naringenin dissolution, reassessed after three months; set-up: key: X: Dissolved; ◯: Partially dissolved, with sediments observed; #: Not dissolved; *: reprecipitated
Procedure: Several solvents and solvent blends were prepared after which a measured amount of naringenin was added and mechanically agitated. Each mixture was then visually observed for dissolution. All samples were stored at room temperature protected from direct light and were reassessed for stability after a period of three months.

[2] = Solubility at 25° C. from transparency during a heating ramp (Crystalline PV), exponential fit
Procedure: Naringenin was mixed with different solvents and mixtures of solvent and transferred to an 8-mL vial equipped with an overhead stirrer. The sample was placed in a Crystalline PV instrument (Technobis, The Netherlands). A heating step was carried with a heating ramp of +0.1° C./min under mechanical stirring, and the samples were monitored by following transparency via a LED light beam that passes through the vial. Full (100%) transparency is attained when Naringenin is completely dissolved in the solvent. On the other hand, when the measured values of transparency are below 100% the dissolution process is still incomplete. Once the signal has attained 100% transparency, the dissolution process was complete and the respective temperature was taken as the solubilization temperature.
For each solvent or mixture of solvent, the measured solubility as a function of temperature has been fitted to an exponential function. The solubility at 25° C. was obtained by extrapolation or interpolation of this exponential function.
The same method as described in Example 3 was used to determine the solubility of Phloretin at 25° C.

[3] = Stability of naringenin solutions stored three months at room temperature; set-up: key: X: dissolved; *: reprecipitated
Text: (§1) Naringenin was mixed with different solvents and heated until the product has completely dissolved. Subsequently, the samples were left to cool down to room temperature and stored over a period of three months.

[4] = as above; set-up: key: X: Dissolved; ◯: Partially dissolved, with sediments observed; #: Not dissolved; *: reprecipitated; details: n-Propyl alcohol
Text: as §1

[5] = (D)-Carvone, naringenin 15% (w/w)
[6] = (L)-Carvone + isopropyl alcohol (50:50), naringenin 10% (w/w)
[7] = (L)-Carvone, naringenin 10% (w/w)
[8] = Carvone + isopropyl alcohol + benzyl alcohol (20:40:40), naringenin 10% (w/w)
[9] = Ethanol + benzyl alcohol (50:50), naringenin 10% (w/w)
[10] = Ethyl lactate + Glycerol 20%, naringenin 10% (w/w)
[11] = Ethyl lactate, naringenin 10% (w/w)
[12] = Isopropyl alcohol + benzyl alcohol (50:50), naringenin 10% (w/w)
[13] = Isopropyl alcohol, naringenin 10% (w/w)
[14] = Lactic acid, naringenin 5% (w/w)
[15] = Mint Spicata (60% Carvone), naringenin 6% (w/w)
[16] = Mint Spicata China (80% Carvone) + isopropyl alcohol (60:40), naringenin 15% (w/w)
[17] = Mint Spicata China (80% Carvone), naringenin 10% (w/w)
[18] = Propanol NAT, naringenin 6% (w/w)
[19] = Propylene glycol, naringenin 10% (w/w)
[20] = (L)-Carvone 50% + Isopropyl alcohol 50%
[21] = n-Propyl alcohol, 4% of Naringenin
[22] = n-Propyl alcohol, 5% of Naringenin
[23] = n-Propyl alcohol, 6% of Naringenin

In the case of `O=C1C[C@@H](c2ccc(O)cc2)Oc2cc(O)cc(O)c21` [Naringenin, naringenin], the Observation [1, 5] is reported as “X”, the “Observation (after 3 months at RT)” value [1, 5] is reported as “X” and the Observation [1, 6] is reported as “X”. For the same compound, the “Observation (after 3 months at RT)” value [1, 6] was “X”, the Observation [1, 7] was “X” and the “Observation (after 3 months at RT)” value [1, 7] was “X”. For the same compound, the Observation [1, 8] was “X”, the “Observation (after 3 months at RT)” value [1, 8] was “X” and the Observation [1, 9] was “X”. For the same compound, the “Observation (after 3 months at RT)” value [1, 9] was “*”, the Observation [1, 10] was “◯” and the “Observation (after 3 months at RT)” value [1, 10] was “◯”. The Observation [1, 11] was “#”, the “Observation (after 3 months at RT)” value [1, 11] was “#” and the Observation ([1]; Glycerol, naringenin 5% (w/w)) was “#”. The “Observation (after 3 months at RT)” value ([1]; Glycerol, naringenin 5% (w/w)) was “#”, the Observation [1, 12] was “X” and the “Observation (after 3 months at RT)” value [1, 12] was “*”. The Observation [1, 13] was “#”, the “Observation (after 3 months at RT)” value [1, 13] was “#” and the Observation [1, 14] was “#”. The “Observation (after 3 months at RT)” value [1, 14] was “#”, the Observation [1, 15] was “X” and the “Observation (after 3 months at RT)” value [1, 15] was “X”. The Observation [1, 16] was “X”, the “Observation (after 3 months at RT)” value [1, 16] was “X” and the Observation [1, 17] was “X”. The “Observation (after 3 months at RT)” value [1, 17] was “X”, the Observation [1, 18] was “◯” and the “Observation (after 3 months at RT)” value [1, 18] was “◯”. For the same compound, the Observation [1, 19] was “#”, the “Observation (after 3 months at RT)” value [1, 19] was “#” and the “Solubility of Naringenin at 25° C. (%)” value ([2]; (D)-Carvone 100%) was 8.5%. The “Solubility of Naringenin at 25° C. (%)” value ([2]; (L)-Carvone 30% + n-Propyl alcohol 70%) was 11.7%, the “Solubility of Naringenin at 25° C. (%)” value ([2]; (L)-Carvone 50% + Ethanol 50%) was 18.7% and the “Solubility of Naringenin at 25° C. (%)” value [2, 20] was 16.6%. The “Solubility of Naringenin at 25° C. (%)” value ([2]; (L)-Carvone 50% + Propylene glycol 50%) was 13.0%, the “Solubility of Naringenin at 25° C. (%)” value ([2]; (L)-Carvone 50% + n-Propyl alcohol 50%) was 14.9% and the “Solubility of Naringenin at 25° C. (%)” value ([2]; (L)-Carvone 70% + n-Propyl alcohol 30%) was 15.7%. For the same compound, the “Solubility of Naringenin at 25° C. (%)” value ([2]; (L)-Carvone 90% + n-Propyl alcohol 10%) was 13.0%, the “Solubility of Naringenin at 25° C. (%)” value ([2]; (L)-Carvone 100%) was 8.5% and the “Solubility of Naringenin at 25° C. (%)” value ([2]; Benzyl alcohol 100%) was 3.9%. The “Solubility of Naringenin at 25° C. (%)” value ([2]; Ethyl lactate 100%) was 5.3%, the “Solubility of Naringenin at 25° C. (%)” value ([2]; Eucalyptol 100%) was 1.2% and the “Solubility of Naringenin at 25° C. (%)” value ([2]; Glycerol 100%) was 0.1%. The “Solubility of Naringenin at 25° C. (%)” value ([2]; Isopropyl alcohol 50% + Benzyl alcohol 50%) was 6.9%, the “Solubility of Naringenin at 25° C. (%)” value ([2]; Isopropyl alcohol 100%) was 5.2% and the “Solubility of Naringenin at 25° C. (%)” value ([2]; Limonene 100%) was under 0.1%. The “Solubility of Naringenin at 25° C. (%)” value ([2]; Mint Spicata (80% carvone) 50% + Propylene glycol 50%) was 12.0%, the “Solubility of Naringenin at 25° C. (%)” value ([2]; Mint Spicata (80% carvone) 60% + Isopropyl alcohol 40%) was 15.4% and the “Solubility of Naringenin at 25° C. (%)” value ([2]; Mint Spicata (80% carvone) 100%) was 7.5%. The “Solubility of Naringenin at 25° C. (%)” value ([2]; Neobee 100%) was 0.1%, the “Solubility of Naringenin at 25° C. (%)” value ([2]; Propylene glycol 100%) was 3.6% and the “Solubility of Naringenin at 25° C. (%)” value ([2]; Triethyl citrate 100%) was 1.7%. For the same compound, the “Solubility of Naringenin at 25° C. (%)” value ([2]; n-Propyl alcohol 100%) was 4.2%, the “Solution state (after three months at RT)” value ([3]; (L)-Carvone, 4% of Naringenin) was “X” and the “Solution state (right after heating)” value ([3]; (L)-Carvone, 4% of Naringenin) was “X”. For the same compound, the “Solution state (after three months at RT)” value ([3]; (L)-Carvone, 5% of Naringenin) was “X”, the “Solution state (right after heating)” value ([3]; (L)-Carvone, 5% of Naringenin) was “X” and the “Solution state (after three months at RT)” value ([3]; (L)-Carvone, 6% of Naringenin) was “X”. The “Solution state (right after heating)” value ([3]; (L)-Carvone, 6% of Naringenin) was “X”, the “Solution state (after three months at RT)” value ([3]; (L)-Carvone, 8% of Naringenin) was “X” and the “Solution state (right after heating)” value ([3]; (L)-Carvone, 8% of Naringenin) was “X”. The “Solution state (after three months at RT)” value ([3]; (L)-Carvone, 10% of Naringenin) was “X”, the “Solution state (right after heating)” value ([3]; (L)-Carvone, 10% of Naringenin) was “X” and the “Solution state (after three months at RT)” value ([3]; (L)-Carvone, 12% of Naringenin) was “X”. The “Solution state (right after heating)” value ([3]; (L)-Carvone, 12% of Naringenin) was “X”, the “Solution state (after three months at RT)” value [3, 21] was “X” and the “Solution state (right after heating)” value [3, 21] was “X”. The “Solution state (after three months at RT)” value [3, 22] was “X”, the “Solution state (right after heating)” value [3, 22] was “X” and the “Solution state (after three months at RT)” value [3, 23] was “X”. For the same compound, the “Solution state (right after heating)” value [3, 23] was “X”, the “Solution state (right after heating)” value ([3]; n-Propyl alcohol, 8% of Naringenin) was “X” and the “Solution state (right after heating)” value ([3]; n-Propyl alcohol, 10% of Naringenin) was “X”. The “Solution state (right after heating)” value ([3]; n-Propyl alcohol, 12% of Naringenin) was “X”, the “Solution state (after three months at RT)” value ([4]; 8% of Naringenin) was “*” and the “Solution state (after three months at RT)” value ([4]; 10% of Naringenin) was “*”. The “Solution state (after three months at RT)” value ([4]; 12% of Naringenin) was “*”.

With `O=C(CCc1ccc(O)cc1)c1c(O)cc(O)cc1O` [Phloretin, phloretin] the “Solubility of Phloretin at 25° C. (%)” value ([2]; (L)-Carvone 50% + Ethanol 50%) was 21.9%, the “Solubility of Phloretin at 25° C. (%)” value [2, 20] was 22.8% and the “Solubility of Phloretin at 25° C. (%)” value ([2]; (L)-Carvone 100%) was 7.7%. For the same compound, the “Solubility of Phloretin at 25° C. (%)” value ([2]; Ethanol 100%) was 15.9%, the “Solubility of Phloretin at 25° C. (%)” value ([2]; Isopropyl alcohol 100%) was 12.7% and the “Solubility of Phloretin at 25° C. (%)” value ([2]; Propylene glycol 100%) was 8.9%.
